Data published in patent US20140120232A1, “ACID TASTE/ACID SMELL-REDUCING AGENT” (T. HASEGAWA CO., LTD., priority 2011, published 2014).

Test: Sensory evaluation of Vermont drink containing the agent
Details: ten panels
Procedure, shortened: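 Tridecadienal or tridecatrienal isomers added at various concentrations to a Vermont-flavoured drink (apple-cider vinegar, honey, liquid sugar, citric acid, trisodium citrate, 100 mL total). Ten panelists assessed acid taste/acid smell and aldehyde-type off-odour, and the concentration giving the best acid taste/smell quality was selected.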

In the case of `CCCCC/C=C/C/C=C\CCC=O` [(Z,E)-4,7-tridecadienal], the “A: number of panels, acid taste/acid smell extreme and cause irritation” value (0.005 ppt) is reported as 10, the “B: number of panels, acid taste/acid smell slightly strong and slightly cause irritation” value (0.005 ppt) is reported as 0 and the “C: number of panels, acid taste/acid smell slightly unpleasant” value (0.005 ppt) is reported as 0. The “Flavor judgment: number of panels who judged acid taste/acid smell quality the highest” value (0.005 ppt) was 0, the “N: number of panels, irritation of acid reduced to give a mild acid taste” value (0.005 ppt) was 0 and the “X: number of panels, acid taste reduced but piercing odor characteristic to aldehydes unpleasant” value (0.005 ppt) was 0. For the same molecule, the “A: number of panels, acid taste/acid smell extreme and cause irritation” value (0.02 ppt) was 10, the “B: number of panels, acid taste/acid smell slightly strong and slightly cause irritation” value (0.02 ppt) was 0 and the “C: number of panels, acid taste/acid smell slightly unpleasant” value (0.02 ppt) was 0. The “Flavor judgment: number of panels who judged acid taste/acid smell quality the highest” value (0.02 ppt) was 0, the “N: number of panels, irritation of acid reduced to give a mild acid taste” value (0.02 ppt) was 0 and the “X: number of panels, acid taste reduced but piercing odor characteristic to aldehydes unpleasant” value (0.02 ppt) was 0. The “A: number of panels, acid taste/acid smell extreme and cause irritation” value (0.1 ppt) was 10, the “B: number of panels, acid taste/acid smell slightly strong and slightly cause irritation” value (0.1 ppt) was 0 and the “C: number of panels, acid taste/acid smell slightly unpleasant” value (0.1 ppt) was 0. For the same molecule, the “Flavor judgment: number of panels who judged acid taste/acid smell quality the highest” value (0.1 ppt) was 0, the “N: number of panels, irritation of acid reduced to give a mild acid taste” value (0.1 ppt) was 0 and the “X: number of panels, acid taste reduced but piercing odor characteristic to aldehydes unpleasant” value (0.1 ppt) was 0. For the same molecule, the “A: number of panels, acid taste/acid smell extreme and cause irritation” value (0.2 ppt) was 9, the “B: number of panels, acid taste/acid smell slightly strong and slightly cause irritation” value (0.2 ppt) was 1 and the “C: number of panels, acid taste/acid smell slightly unpleasant” value (0.2 ppt) was 0. The “Flavor judgment: number of panels who judged acid taste/acid smell quality the highest” value (0.2 ppt) was 0, the “N: number of panels, irritation of acid reduced to give a mild acid taste” value (0.2 ppt) was 0 and the “X: number of panels, acid taste reduced but piercing odor characteristic to aldehydes unpleasant” value (0.2 ppt) was 0. The “A: number of panels, acid taste/acid smell extreme and cause irritation” value (0.5 ppt) was 5, the “B: number of panels, acid taste/acid smell slightly strong and slightly cause irritation” value (0.5 ppt) was 3 and the “C: number of panels, acid taste/acid smell slightly unpleasant” value (0.5 ppt) was 2. For the same molecule, the “Flavor judgment: number of panels who judged acid taste/acid smell quality the highest” value (0.5 ppt) was 0, the “N: number of panels, irritation of acid reduced to give a mild acid taste” value (0.5 ppt) was 0 and the “X: number of panels, acid taste reduced but piercing odor characteristic to aldehydes unpleasant” value (0.5 ppt) was 0. For the same molecule, the “A: number of panels, acid taste/acid smell extreme and cause irritation” value (1 ppb) was 0, the “B: number of panels, acid taste/acid smell slightly strong and slightly cause irritation” value (1 ppb) was 0 and the “C: number of panels, acid taste/acid smell slightly unpleasant” value (1 ppb) was 2. For the same molecule, the “Flavor judgment: number of panels who judged acid taste/acid smell quality the highest” value (1 ppb) was 0, the “N: number of panels, irritation of acid reduced to give a mild acid taste” value (1 ppb) was 4 and the “X: number of panels, acid taste reduced but piercing odor characteristic to aldehydes unpleasant” value (1 ppb) was 4. For the same molecule, the “A: number of panels, acid taste/acid smell extreme and cause irritation” value (1 ppt) was 0, the “B: number of panels, acid taste/acid smell slightly strong and slightly cause irritation” value (1 ppt) was 3 and the “C: number of panels, acid taste/acid smell slightly unpleasant” value (1 ppt) was 6. The “Flavor judgment: number of panels who judged acid taste/acid smell quality the highest” value (1 ppt) was 0, the “N: number of panels, irritation of acid reduced to give a mild acid taste” value (1 ppt) was 1 and the “X: number of panels, acid taste reduced but piercing odor characteristic to aldehydes unpleasant” value (1 ppt) was 0. The “A: number of panels, acid taste/acid smell extreme and cause irritation” value (5 ppt) was 0, the “B: number of panels, acid taste/acid smell slightly strong and slightly cause irritation” value (5 ppt) was 2 and the “C: number of panels, acid taste/acid smell slightly unpleasant” value (5 ppt) was 2. For the same molecule, the “Flavor judgment: number of panels who judged acid taste/acid smell quality the highest” value (5 ppt) was 4, the “N: number of panels, irritation of acid reduced to give a mild acid taste” value (5 ppt) was 6 and the “X: number of panels, acid taste reduced but piercing odor characteristic to aldehydes unpleasant” value (5 ppt) was 0. The “A: number of panels, acid taste/acid smell extreme and cause irritation” value (10 ppb) was 0, the “B: number of panels, acid taste/acid smell slightly strong and slightly cause irritation” value (10 ppb) was 0 and the “C: number of panels, acid taste/acid smell slightly unpleasant” value (10 ppb) was 2. The “Flavor judgment: number of panels who judged acid taste/acid smell quality the highest” value (10 ppb) was 0, the “N: number of panels, irritation of acid reduced to give a mild acid taste” value (10 ppb) was 3 and the “X: number of panels, acid taste reduced but piercing odor characteristic to aldehydes unpleasant” value (10 ppb) was 5. The “A: number of panels, acid taste/acid smell extreme and cause irritation” value (20 ppt) was 0, the “B: number of panels, acid taste/acid smell slightly strong and slightly cause irritation” value (20 ppt) was 1 and the “C: number of panels, acid taste/acid smell slightly unpleasant” value (20 ppt) was 2. For the same molecule, the “Flavor judgment: number of panels who judged acid taste/acid smell quality the highest” value (20 ppt) was 3, the “N: number of panels, irritation of acid reduced to give a mild acid taste” value (20 ppt) was 7 and the “X: number of panels, acid taste reduced but piercing odor characteristic to aldehydes unpleasant” value (20 ppt) was 0. For the same molecule, the “A: number of panels, acid taste/acid smell extreme and cause irritation” value (50 ppb) was 0, the “B: number of panels, acid taste/acid smell slightly strong and slightly cause irritation” value (50 ppb) was 0 and the “C: number of panels, acid taste/acid smell slightly unpleasant” value (50 ppb) was 0. For the same molecule, the “Flavor judgment: number of panels who judged acid taste/acid smell quality the highest” value (50 ppb) was 0, the “N: number of panels, irritation of acid reduced to give a mild acid taste” value (50 ppb) was 2 and the “X: number of panels, acid taste reduced but piercing odor characteristic to aldehydes unpleasant” value (50 ppb) was 8. For the same molecule, the “A: number of panels, acid taste/acid smell extreme and cause irritation” value (100 ppt) was 0, the “B: number of panels, acid taste/acid smell slightly strong and slightly cause irritation” value (100 ppt) was 0 and the “C: number of panels, acid taste/acid smell slightly unpleasant” value (100 ppt) was 2. The “Flavor judgment: number of panels who judged acid taste/acid smell quality the highest” value (100 ppt) was 3, the “N: number of panels, irritation of acid reduced to give a mild acid taste” value (100 ppt) was 8 and the “X: number of panels, acid taste reduced but piercing odor characteristic to aldehydes unpleasant” value (100 ppt) was 0. For the same molecule, the “A: number of panels, acid taste/acid smell extreme and cause irritation” value (500 ppt) was 0, the “B: number of panels, acid taste/acid smell slightly strong and slightly cause irritation” value (500 ppt) was 1 and the “C: number of panels, acid taste/acid smell slightly unpleasant” value (500 ppt) was 3. The “Flavor judgment: number of panels who judged acid taste/acid smell quality the highest” value (500 ppt) was 0, the “N: number of panels, irritation of acid reduced to give a mild acid taste” value (500 ppt) was 4 and the “X: number of panels, acid taste reduced but piercing odor characteristic to aldehydes unpleasant” value (500 ppt) was 2.
